Laboratory results reported in patent US20210369720A1, “SYNERGISTIC COMPOSITION HAVING NEUROPROTECTIVE PROPERTIES AND METHODS OF USE THEREOF” (Rutgers, The State University of New Jersey, priority 2018, published 2021).

Assays:
Type in all cases: in vivo
Iba1 = experiment: Immunohistochemical staining of Iba-1 in the striatum, Syn^Tg mice; details: EHT 12 mg/kg/day and/or caffeine 50 mg/kg/day until six months of age
Source text: Neuroinflammation is one of the neuropathological features of PD and models of α-synucleinopathy including Syn^Tg mice (Lee K W, et al. (2011) Enhanced phosphatase activity attenuates alpha-synucleinopathy in a mouse model. J Neurosci 31(19):6963-6971).
Thy1-α-synuclein transgenic mice (Syn^Tg) on BDF1 background overexpressing human wild-type α-synuclein under the control of the Thy1 promoter were maintained by mating heterozygous transgenic females with WT BDF1 males (Rockenstein E, et al. (2002) Differential neuropathological alterations in transgenic mice expressing alpha-synuclein from the platelet-derived growth factor and Thy-1 promoters. J Neurosci Res 68(5):568-578). BDF1 mice (mixed C57BL/6-DBA/2) were generated every three months by mating female C57BL/6 (The Jackson Laboratory) and male DBA/2 mice (Charles River). Experiments were performed with male transgenic mice and their WT littermates. […] Wild-type littermates received regular water and control chow. […] Mice were weighed and their food and water intake was quantified weekly. […]
(§1) Vectastain elite ABC kit (Vector Laboratories, Burlingame, Calif.) and 3,3′-diaminobenzidine (Sigma-Aldrich) were used for amplifying and color development. […] For other stains, the whole microscopic field was analyzed. For p-α-Syn stains in the cortex, four matching regions in each of two sections per animal were counted.

[1] = tested on: phosphorylated α-synuclein (p-α-Syn); experiment: Immunohistochemical staining of p-α-Syn, Syn^Tg mice; details: EHT 12 mg/kg/day and/or caffeine 50 mg/kg/day until six months of age, vs untreated Syn^Tg mice
Source text: (§2) Thy1-α-synuclein transgenic mice (Syn^Tg) on BDF1 background overexpressing human wild-type α-synuclein under the control of the Thy1 promoter were maintained by mating heterozygous transgenic females with WT BDF1 males (Rockenstein E, et al. (2002) Differential neuropathological alterations in transgenic mice expressing alpha-synuclein from the platelet-derived growth factor and Thy-1 promoters. J Neurosci Res 68(5):568-578). BDF1 mice (mixed C57BL/6-DBA/2) were generated every three months by mating female C57BL/6 (The Jackson Laboratory) and male DBA/2 mice (Charles River). Experiments were performed with male transgenic mice and their WT littermates. […] Wild-type littermates received regular water and control chow. […] At two months of age, mice were inoculated with α-Syn PFF unilaterally in the striatum. These treatments continued throughout the experiment until animals were sacrificed. Mice were weighed and their food and water intake was quantified weekly. […]
as §1

Syn^Tg mice [2] = experiment: Rotarod, Syn^Tg mice; details: EHT 12 mg/kg/day in chow and/or caffeine 50 mg/kg/day in drinking water from weaning until six months of age, vs untreated Syn^Tg mice
Source text: as §2, with “weekly. Animals were housed 2-5/cage in an AAALAC approved facility in a temperature- and humidity-controlled environment under a 12-hour light/dark cycle and were maintained on a diet of lab chow and water ad libitum.” for “weekly.”

[3] = tested on: phosphorylated α-synuclein (p-α-Syn); experiment: Western blot of p-α-Syn in cortical tissue lysates, Syn^Tg mice; details: EHT 12 mg/kg/day and/or caffeine 50 mg/kg/day until six months of age, vs untreated Syn^Tg mice
Source text: as §2
Human neuroblastoma SH-SY5Y cells were cultured in DMEM-F12 with 10% FBS. […] Protein concentration was determined by bicinchonic acid (BCA) method (Pierce), equal amount of protein was separated on 5-20% SDS-PAGE gel (Genescript) and transferred to nitrocellulose or PVDF membrane (Biorad). […]

MAP2 = experiment: Immunofluorescence staining of MAP2 in the cortex, Syn^Tg mice; details: EHT 12 mg/kg/day and/or caffeine 50 mg/kg/day until six months of age
Source text: as §2, with “weekly. Animals were housed 2-5/cage in an AAALAC approved facility in a temperature- and humidity-controlled environment under a 12-hour light/dark cycle and were maintained on a diet of lab chow and water ad libitum.” for “weekly.”

dopamine = experiment: Striatal dopamine content by HPLC-MS, α-Syn PFF inoculated WT mice; details: each compound alone, EHT 12 mg/kg/day or caffeine 50 mg/kg/day, vs untreated α-Syn PFF inoculated mice
Source text: as §2, with “weekly. Animals were housed 2-5/cage in an AAALAC approved facility in a temperature- and humidity-controlled environment under a 12-hour light/dark cycle and were maintained on a diet of lab chow and water ad libitum.” for “weekly.”

Iba-1 = experiment: Immunohistochemical staining of Iba-1 in the striatum, α-Syn PFF inoculated WT mice; details: EHT 12 mg/kg/day and/or caffeine 50 mg/kg/day, vs untreated α-Syn PFF inoculated group
Source text: as §2, with “weekly. Animals were housed 2-5/cage in an AAALAC approved facility in a temperature- and humidity-controlled environment under a 12-hour light/dark cycle and were maintained on a diet of lab chow and water ad libitum.” for “weekly.”

Syn^Tg mice [4] = experiment: Wire Hang test, Syn^Tg mice; details: EHT 12 mg/kg/day in chow and/or caffeine 50 mg/kg/day in drinking water from weaning until six months of age, vs untreated Syn^Tg mice
Source text: as §2, with “weekly. Animals were housed 2-5/cage in an AAALAC approved facility in a temperature- and humidity-controlled environment under a 12-hour light/dark cycle and were maintained on a diet of lab chow and water ad libitum.” for “weekly.”

## CCCCCCCCCCCCCCCCCCCC(=O)NCCc1c[nH]c2ccc(O)cc12 [EHT, eicosanoyl-5-hydroxytryptamide]
Iba1
  microglial activation (Iba1) in the striatum: partially but insignificantly attenuated
[1]
  number of p-α-Syn immunoreactive cells, hippocampus (FIG. 2B): reduced p-α-Syn positive cells
Syn^Tg mice [2]
  performance on the rotarod: did not improve performance
[3]
  p-α-Syn levels by Western blot, cortical tissue lysates: no significant effect
MAP2
  MAP2 in the cortex (neuritic integrity): did not improve this profile
dopamine
  dopamine (DA) content in lysates of the ipsilateral striatum, benefit in words: did not have a significant benefit
Iba-1
  microglial activation (Iba-1) in the contralateral striatum: only a partial effect that was statistically insignificant
  microglial activation (Iba-1) in the ipsilateral striatum: only a partial effect that was statistically insignificant
Syn^Tg mice [4]
  performance on the wire hang test: did so only on the Wire Hang test
